# Experiments:
# [1] = Solubility of gemcabene calcium salt Crystal Form 1 by solvent addition method; assay type: physicochemical
# Procedure: Approximately 20 mg of gemcabene calcium Crystal Form 1 was added to 5×2 mL vials. The solubility in 5 solvents was tested using a solvent addition method. Solvents included acetone, ethanol, ethyl acetate, t-butyl methyl ether (t-BME) and water. Solvent was added in 5 volume (100 μL) aliquots until either dissolution or 2 mL in total had been added. Between each addition, samples were heated to 60° C. (40° C. for acetone and t-BME). Any solids remaining after 24 hours at ambient were analyzed by X-ray powder diffraction (XRPD).
# [2] = test system: hepatic mRNA expression in STAM™ mice; assay: Murine STAM model of NASH-HCC: hepatic gene expression by quantitative RT-PCR; assay type: in vivo, mouse; settings: for TNF-α mRNA expression (relative, normalized to vehicle-treated normal group): mean±SD, vehicle STAM 3.6±1.0; for ADH-4 mRNA expression levels (relative): vehicle STAM 0.9±0.3; for CRP mRNA levels (relative): vehicle STAM 1.0±0.2; for NF-κB mRNA expression levels (relative): vehicle STAM 1.1±0.1; for MMP-2 mRNA expression levels (relative): vehicle STAM 1.9±0.7; for CCR2 mRNA expression levels (relative): vehicle STAM 3.5±1.7; for MCP-1 mRNA expression levels (relative): vehicle STAM 3.6±1.7; for Sulf-2 mRNA expression levels (relative): vehicle STAM 5.2±1.2; for MIP-1β mRNA levels (relative): vehicle STAM 5.6±2.0; for TIMP-1 mRNA expression (relative): vehicle STAM 12.9±9.0
# Procedure: A study was performed to evaluate the efficacy of gemcabene calcium salt hydrate Crystal Form 1 having a PSD90 of 52 μm as measured by laser light diffraction, in treating non-alcoholic steatosis hepatitis (NASH) in the murine STAM™ model of NASH-HCC.
# Briefly, two-day old neonatal C57BL/6 male mice were administered low-dose streptozotocin (STZ), and were subsequently fed a HFC diet from 4 weeks of age. In this model, the mice typically develop liver steatosis and diabetes, reaching steatohepatitis within 3 weeks, followed by cirrhosis within 8 weeks, and carcinoma within 16 weeks. In the current study, mice were administered daily oral gemcabene calcium salt hydrate Crystal Form 1 starting at week 6 of age and were sacrificed at week 9. Telmisartan (with antisteatotic, anti-inflammatory and antifibrotic effects in STAM™ mice) was used as a positive comparator. A baseline reference group was administered vehicle at day 2 of age, and from week 6 of age was vehicle-treated and chow-fed. Five STAM™ groups were streptozocin-treated at day 2 of age and fed a HFC-diet beginning with week 4 of age. These STAM™ groups were orally administered from week 6 one of the following: water-vehicle, gemcabene calcium salt hydrate Crystal Form 1 at 30, 100 and 300 mg/kg daily, or telmisartan ([…]®) 10 mg/kg daily. Telmisartan ([…]®) was purchased from Boehringer Ingelheim GmbH (Germany) and dissolved in pure water. All groups were sacrificed at week 9. Vehicle, gemcabene calcium salt hydrate Crystal Form 1, or telmisartan were administered by oral gavage once daily.
# Various gene expression markers of liver metabolism were evaluated by Real-Time PCR (RT-PCR) in all mouse groups. Total RNA was extracted from liver samples using RNAiso (Takara Bio, Japan) according to the manufacturer's instructions. One μg of RNA was reverse-transcribed using a reaction mixture containing 4.4 mM MgCl2 (F. Hoffmann-La Roche, Switzerland), 40 U RNase inhibitor (Toyobo, Japan), 0.5 mM dNTP (Promega, USA), 6.28 μM random hexamer (Promega), 5× first strand buffer (Promega), 10 mM dithiothreitol (Invitrogen, USA) and 200 U MMLV-RT (Invitrogen) in a final volume of 20 μL. The reaction was carried out for 1 hour at 37° C., followed by 5 minutes at 99° C. Real-time PCR was performed using real-time PCR DICE and SYBR premix Taq (Takara Bio). To calculate the relative mRNA expression level, the expression of each gene was normalized to that of reference gene 36B4 (gene symbol: Rplp0). Information of PCR-primer sets is described in Tables 20A-20C. Statistical analyses were performed using the Bonferroni Multiple Comparison Test on GraphPad Prism 6 (GraphPad Software Inc., USA). P values <0.05 were considered statistically significant. Results are expressed as mean±SD.
# In order to calculate the relative mRNA expression level, the expression of each gene was normalized to that of the reference gene 36B4 (gene symbol: Rplp0). The gene expression levels were measured by quantitative RT-PCR. Results were normalized with values for the vehicle-treated normal group. […] Gemcabene calcium salt hydrate Crystal Form 1 (PSD90=52 μm) modulated the mRNA expression of many hepatic genes that play a significant role in the liver homeostasis and injury.
smiles,measurement,setting,value
"CC(C)(CCCCOCCCCC(C)(C)C(=O)[O-])C(=O)[O-].O.[Ca+2] [6-(5-Carboxy-5-methyl-hexyloxy)-2,2-dimethylhexanoic acid calcium (gemcabene calcium salt) hydrate Crystal Form 1]",Solubility,[1]; /-Butyl Methyl Ether (t-BME),<10000 µg/mL
same,Solubility,[1]; Acetone,<10000 µg/mL
same,Solubility,[1]; Ethanol,<10000 µg/mL
same,Solubility,[1]; Ethyl Acetate,<10000 µg/mL
same,Solubility,[1]; Water,33000 µg/mL
same,CCR5 mRNA expression levels (relative),[2]; gemcabene 100 mg/kg,1.4±0.3
same,"TNF-α mRNA expression (relative, normalized to vehicle-treated normal group)",[2]; gemcabene 100 mg/kg,2.0±0.8
same,ACC-1 mRNA expression levels (relative),"[2]; gemcabene 100 mg/kg, telmisartan 10 mg/kg, vehicle STAM 0.9±0.2",0.7±0.1
same,ADH-4 mRNA expression levels (relative),[2]; gemcabene 100 mg/kg,0.6±0.1
same,CRP mRNA levels (relative),[2]; gemcabene 100 mg/kg,0.6±0.1
same,NF-κB mRNA expression levels (relative),[2]; gemcabene 100 mg/kg,0.9±0.1
same,MMP-2 mRNA expression levels (relative),[2]; gemcabene 100 mg/kg,0.5±0.2
same,CCR2 mRNA expression levels (relative),[2]; gemcabene 100 mg/kg,1.6±0.4
same,MCP-1 mRNA expression levels (relative),[2]; gemcabene 100 mg/kg,1.7±0.7
same,Sulf-2 mRNA expression levels (relative),[2]; gemcabene 100 mg/kg,3.8±0.7
same,MIP-1β mRNA levels (relative),[2]; gemcabene 100 mg/kg,2.3±0.9
same,TIMP-1 mRNA expression (relative),[2]; gemcabene 100 mg/kg,3.8±1.6
same,CCR5 mRNA expression levels (relative),[2]; gemcabene 300 mg/kg,1.3±0.3
same,"TNF-α mRNA expression (relative, normalized to vehicle-treated normal group)",[2]; gemcabene 300 mg/kg,1.9±0.7
same,ADH-4 mRNA expression levels (relative),[2]; gemcabene 300 mg/kg,0.5±0.1
same,CRP mRNA levels (relative),[2]; gemcabene 300 mg/kg,0.5±0.1
same,NF-κB mRNA expression levels (relative),[2]; gemcabene 300 mg/kg,0.8±0.1
same,MMP-2 mRNA expression levels (relative),[2]; gemcabene 300 mg/kg,0.9±0.2
same,CCR2 mRNA expression levels (relative),[2]; gemcabene 300 mg/kg,1.7±0.7
same,MCP-1 mRNA expression levels (relative),[2]; gemcabene 300 mg/kg,1.6±0.7
same,Sulf-2 mRNA expression levels (relative),[2]; gemcabene 300 mg/kg,3.3±0.9
same,MIP-1β mRNA levels (relative),[2]; gemcabene 300 mg/kg,2.8±1.4
same,TIMP-1 mRNA expression (relative),[2]; gemcabene 300 mg/kg,4.4±2.1

# Reference: patent US20200148617A1, “GEMCABENE, PHARMACEUTICALLY ACCEPTABLE SALTS THEREOF, COMPOSITIONS THEREOF AND METHODS OF USE THEREFOR” (GEMPHIRE THERAPEUTICS INC., priority 2017, published 2020)
